According to US7435731B2, “Substituted pyrazolo[3,4-d]pyrimadines and methods of using the same” (Roche Palo Alto LLC, priority 2004, dated 2008):

Experiments:
p38 MAP kinase = target: T1, p38 MAP kinase (Homo sapiens, UniProt Q16539); assay: p38 (MAP) kinase in vitro assay, transfer of γ-33P-phosphate from ATP to Myelin Basic Protein; type: biochemical; settings: phosphorylated recombinant p38 MAP kinase, MBP substrate, γ-33P-ATP, 30° C.
T1 construct: made in house; host or cells: E. coli (co-expressed with SEK-1 and MEKK)
T1 sequence (Q16539 whole entry): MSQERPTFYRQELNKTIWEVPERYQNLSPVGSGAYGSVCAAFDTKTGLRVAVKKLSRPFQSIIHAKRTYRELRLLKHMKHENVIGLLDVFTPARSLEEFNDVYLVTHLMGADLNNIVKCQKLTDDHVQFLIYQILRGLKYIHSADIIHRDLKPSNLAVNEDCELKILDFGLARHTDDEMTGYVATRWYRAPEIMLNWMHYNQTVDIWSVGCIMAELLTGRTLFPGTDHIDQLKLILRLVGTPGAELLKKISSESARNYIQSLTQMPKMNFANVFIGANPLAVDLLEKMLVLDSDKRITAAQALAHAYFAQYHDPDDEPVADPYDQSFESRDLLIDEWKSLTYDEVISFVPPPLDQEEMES
Method: This example illustrates a p38 (MAP) kinase in vitro assay useful for evaluating the compounds of the invention.
The p38 MAP kinase inhibitory activity of compounds of this invention in vitro was determined by measuring the transfer of the γ-phosphate from γ-^33P-ATP by p-38 kinase to Myelin Basic Protein (MBP), using a minor modification of the method described in Ahn, et al., J. Biol. Chem. 266:4220-4227 (1991).
The phosphorylated form of the recombinant p38 MAP kinase was co-expressed with SEK-1 and MEKK in E. Coli (see, Khokhlatchev, et al., J. Biol. Chem. 272:11057-11062 (1997)) and then purified by affinity chromatography using a Nickel column.
The phosphorylated p38 MAP kinase was diluted in kinase buffer (20 mM 3-(N-morpholino)propanesulfonic acid, pH 7.2, 25 mM β-glycerol phosphate, 5 mM ethylene glycol-bis(beta-aminoethyl ether)-N,N,N′,N′-tetraacetic acid, 1 mM sodium ortho-vanadate, 1 mM dithiothreitol, 40 mM magnesium chloride). Test compound dissolved in DMSO or only DMSO (control) was added and the samples were incubated for 10 min at 30° C. The kinase reaction was initiated by the addition of a substrate cocktail containing MBP and γ-^33P-ATP. […] The phosphorylated MBP was then separated from the residual γ-^33P-ATP using a phosphocellulose membrane (Millipore, Bedford, Mass.) and quantitated using a scintillation counter (Packard, Meriden, Conn.).

melting point [°C] | IC50 (p38 MAP kinase) [nM] | Structure (SMILES)
179.2 to 181.3 |  | OC[C@H](O)COc1nc(Oc2ccc(F)cc2F)nc2[nH]nc(-c3ccccc3Cl)c12 [Example 5, (S)-3-[3-(2-Chloro-phenyl)-6-(2,4-difluoro-phenoxy)-1H-pyrazolo[3,4-d]pyrimidin-4-yloxy]-propane-1,2-diol]
237.9 to 238.5 |  | C[C@H](O)CNc1cc(Oc2ccc(F)cc2F)nc2[nH]nc(-c3ccccc3Cl)c12 [Example 10, (S)-1-[3-(2-Chloro-phenyl)-6-(2,4-difluoro-phenoxy)-1H-pyrazolo[3,4-b]pyridin-4-ylamino]-propan-2-ol]
 | 4 | OC[C@@H](O)CNc1nc(Oc2ccc(F)cc2F)nc2[nH]nc(-c3ccccc3Cl)c12 [3-[3-(2-Chloro-phenyl)-6-(2,4-difluoro-phenoxy)-1H-pyrazolo[3,4-d]pyrimidin-4-ylamino]-propane-1,2-diol]
254.6 to 258.2 |  | C[C@H](O)CNc1nc(Oc2ccc(F)cc2F)nc2[nH]nc(-c3ccccc3Cl)c12 [Example 1, (S)-1-[3-(2-chlorophenyl)-6-(2,4-difluorophenoxy)-1H-pyrazolo[3,4-d]pyrimidin-4-ylamino]propan-2-ol]
171.2 to 172 |  | C[C@H](O)CNc1nc(Oc2ccc(F)cc2F)cc2[nH]nc(-c3ccccc3Cl)c12 [Example 9, (S)-1-[3-(2-Chloro-phenyl)-6-(2,4-difluoro-phenoxy)-1H-pyrazolo[4,3-c]pyridin-4-ylamino]-propan-2-ol]
